Measured values taken from article PMC4291223, “Inhibitors of CLK Protein Kinases Suppress Cell Growth and Induce Apoptosis by Modulating Pre-mRNA Splicing” (PLoS ONE, 2015).

Experiments:
CLK1 = biological target: T1, CLK1 (Homo sapiens, UniProt P49759); test: In vitro kinase assay (ADP-Glo), CLK1; format: biochemical; details: for IC50: 5 µM ATP; for activity for CLK1 relative to Cpd-1: stronger than Cpd-1
T1 construct: purchased Life Technologies
Description: (§1) The ATP concentration for each assay was adjusted to the Km for each kinase. Kinase assays for SRPK1–3 and CLK1 were performed using the ADP-Glo™ assay (Promega, Madison, WI). The kinase buffer contained 25 mM HEPES (pH 7.5), 10 mM magnesium acetate, 1 mM DTT, 0.01% BSA, and 0.01% Tween-20. The reaction mixtures contained 50 ng/mL SRPK1, 100 ng/mL SRPK2 or SRPK3, or 300 ng/mL CLK1 and 3 μM substrate peptide [GRSRSRSRSRSRSRSR] (Thermo Scientific). After incubating the enzyme, peptide, and compounds for 10 min, kinase reactions were initiated by adding ATP to a final concentration of 5 µM, followed by incubation for 30 min (15 min for SRPK1). The kinase reactions were terminated by adding ADP-Glo™ reagent (Promega). ADP was detected using a kinase detection reagent (Promega). The kinase activity of CLK2 was measured using the LANCE® Ultra assay (Perkin-Elmer, Waltham, MA) with ADP-Glo assay buffer. The reaction mixtures contained 100 ng/mL CLK2 and 50 nM ULight™-myelin basic protein (MBP) peptide (Perkin-Elmer). After incubating the enzyme, peptide, and compounds for 5 min, kinase reactions were initiated by adding ATP to a final concentration of 20 μM, followed by incubation for 30 min. The enzyme reactions were terminated by adding 30 mM EDTA, and phosphorylated ULight-MBP peptides were detected using a europium-labeled anti-phospho-MBP antibody diluted with detection buffer (Perkin-Elmer). The plates were read using an EnVision 2102 multilabel reader (Perkin-Elmer). We defined the absorbance of the reaction without enzyme as 100% inhibitory activity and that of the complete reaction mixture as 0% inhibitory activity. The IC50 values were estimated using the “Sigmoidal dose-response (variable slope)” equation in GraphPad Prism 5 software (GraphPad Software, San Diego, CA), with the maximum and minimum of the curve constrained to 100 and 0, respectively.

CLK2 = biological target: T2, CLK2 (Homo sapiens, UniProt P49760); test: In vitro kinase assay (LANCE Ultra), CLK2; format: biochemical; details: for IC50: 20 µM ATP; for activity for CLK2 relative to Cpd-1: stronger than Cpd-1
T2 construct: purchased Life Technologies
Description: as §1

SW620 cells = test: Cell viability assay, SW620; format: cell-based; details: Homo sapiens, SW-620; SW620 colorectal cancer
COLO320DM cells = test: Cell viability assay, COLO320DM; format: cell-based; details: Homo sapiens, COLO 320DM; COLO320DM colorectal cancer
Aurora kinase A = Aurora kinase A (Homo sapiens, UniProt O14965); test: Kinase panel assay (Z'-LYTE, SelectScreen), Aurora kinase A; format: biochemical; details: 1 μM compound, 100 μM ATP; among kinases inhibited by more than 50%
Description: (§2) Kinase panel assays were performed using the FRET-based Z’- LYTE enzymatic kinase assay system (Life Technologies, Carlsbad, CA), which was carried out using the SelectScreen Kinase Profiling Service (Life Technologies). The standard reaction contained 2 μM peptide substrate, 100 μM ATP, 50 mM HEPES (pH 7.5), 0.01% Brij-35, 10 mM MgCl2, 1 mM EGTA, and each kinase. Cpd-1, Cpd-2, and Cpd-3 at two point concentration (100 and 1000 nM) with duplicate data points (n = 2) were assayed following the detailed procedures outlined in the SelectScreen. The full assay protocol and conditions can be obtained at www.lifetechnologies.com. Percent inhibition represents a ratio of phosphorylated product formed in the presence of the compound compared with phosphorylated product formed in reactions containing 1% DMSO. Inhibition data indicates the mean value of kinase inhibition from duplicate data.

[1] = test system: mRNA isoforms harboring PTCs in MDA-MB-468 cells; test: Fluorescence pulse-chase RNA labeling assay; format: cell-based, human; details: 50 μM Cpd-1 or 5 μM Cpd-2
Description: MDA-MB-468 cells (5 × 10^5) were seeded into 6-well plates and incubated overnight. The cells were treated with each compound for 6 h and incubated with culture medium containing 5-EU (Invitrogen) to label cellular RNA. After incubation for 1 h, the medium was replaced with EU-free fresh medium and the cells were cultured for a further 24 h to allow degradation of the labeled RNA (chase). Cells were harvested before and after the chase and EU-labeled RNA was isolated using a Click-iT Nascent RNA Capture Kit (Invitrogen) according to the manufacturer’s instructions. The isolated RNA was analyzed by quantitative RT-PCR to measure the amount of each mRNA splice isoform.

SRPK3 = biological target: T3, SRPK3 (Homo sapiens, UniProt Q9UPE1); test: In vitro kinase assay (ADP-Glo), SRPK3; format: biochemical; details: 5 µM ATP
T3 construct: purchased Millipore
Description: The ATP concentration for each assay was adjusted to the Km for each kinase. Kinase assays for SRPK1–3 and CLK1 were performed using the ADP-Glo™ assay (Promega, Madison, WI). The kinase buffer contained 25 mM HEPES (pH 7.5), 10 mM magnesium acetate, 1 mM DTT, 0.01% BSA, and 0.01% Tween-20. The reaction mixtures contained 50 ng/mL SRPK1, 100 ng/mL SRPK2 or SRPK3, or 300 ng/mL CLK1 and 3 μM substrate peptide [GRSRSRSRSRSRSRSR] (Thermo Scientific). After incubating the enzyme, peptide, and compounds for 10 min, kinase reactions were initiated by adding ATP to a final concentration of 5 µM, followed by incubation for 30 min (15 min for SRPK1). The kinase reactions were terminated by adding ADP-Glo™ reagent (Promega). ADP was detected using a kinase detection reagent (Promega). The kinase activity of CLK2 was measured using the LANCE® Ultra assay (Perkin-Elmer, Waltham, MA) with ADP-Glo assay buffer. […] The enzyme reactions were terminated by adding 30 mM EDTA, and phosphorylated ULight-MBP peptides were detected using a europium-labeled anti-phospho-MBP antibody diluted with detection buffer (Perkin-Elmer). The plates were read using an EnVision 2102 multilabel reader (Perkin-Elmer). We defined the absorbance of the reaction without enzyme as 100% inhibitory activity and that of the complete reaction mixture as 0% inhibitory activity. […]

PI3Kα = PI3Kα (Homo sapiens, UniProt P42336); test: Kinase panel assay (Z'-LYTE, SelectScreen), PI3Kα; format: biochemical; details: 1 μM compound, 100 μM ATP; among kinases inhibited by more than 50%
Description: as §2

[2] = test system: phospho-SR proteins in MDA-MB-468 cells; test: Immunoblot of phospho-SR proteins; format: cell-based, human; details: MDA-MB-468, 3 h, anti-pan-phospho-SR antibody
Description: (§3) Cells were lysed in radioimmunoprecipitation assay buffer containing 50 mM Tris-HCl (pH 7.6), 150 mM NaCl, 1% Triton X-100, and protease inhibitor cocktail tablets (Roche). After removal of the insoluble matter by centrifugation at 15,000 rpm for 15 min, the protein concentrations of the supernatants were determined using a BCA Protein Assay Kit (Pierce Biotechnology, Rockford, IL). The lysates were directly combined with one-quarter volume of 5× sample buffer [25 mmol/L Tris-HCl pH 6.8, 10% glycerol, 0.8% SDS, and 0.004% bromophenol blue] and boiled at 100°C for 5 min. The samples were subjected to 5–20% gradient SDS-polyacrylamide gel electrophoresis, and the separated proteins were electrophoretically transferred to polyvinylidene difluoride membranes using an I-blot System (Invitrogen). The membranes were incubated with primary antibodies and visualized using enhanced chemiluminescence reagents (GE Healthcare). The primary antibodies were as follows: anti-phospho-SR (1H4), anti-SR (Invitrogen), anti-EGFR, anti-EIF3D, anti-GAPDH (Santa Cruz Biotechnology, Santa Cruz, CA), anti-S6K and anti-PARP (Cell Signaling Technology, Danvers, MA).

[3] = test system: S6K, EIF3D, and EGFR in MDA-MB-468 cells; test: Immunoblot of S6K, EIF3D and EGFR protein levels; format: cell-based, human; details: MDA-MB-468, 24 h
Description: as §3

T2 sequence (P49760 whole entry): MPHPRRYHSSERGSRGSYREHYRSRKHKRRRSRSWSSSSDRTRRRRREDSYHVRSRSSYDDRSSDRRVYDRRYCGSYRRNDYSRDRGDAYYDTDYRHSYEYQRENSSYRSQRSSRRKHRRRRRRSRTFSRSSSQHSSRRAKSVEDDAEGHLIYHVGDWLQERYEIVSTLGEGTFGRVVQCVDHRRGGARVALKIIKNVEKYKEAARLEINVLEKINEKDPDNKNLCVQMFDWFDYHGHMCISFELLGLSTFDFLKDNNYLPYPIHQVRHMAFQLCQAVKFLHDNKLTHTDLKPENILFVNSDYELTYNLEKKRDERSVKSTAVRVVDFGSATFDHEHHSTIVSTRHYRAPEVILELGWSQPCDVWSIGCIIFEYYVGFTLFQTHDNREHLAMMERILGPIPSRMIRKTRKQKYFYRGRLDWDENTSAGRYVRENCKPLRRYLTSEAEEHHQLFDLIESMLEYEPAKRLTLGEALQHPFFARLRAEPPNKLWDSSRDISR
T1 sequence (P49759 whole entry): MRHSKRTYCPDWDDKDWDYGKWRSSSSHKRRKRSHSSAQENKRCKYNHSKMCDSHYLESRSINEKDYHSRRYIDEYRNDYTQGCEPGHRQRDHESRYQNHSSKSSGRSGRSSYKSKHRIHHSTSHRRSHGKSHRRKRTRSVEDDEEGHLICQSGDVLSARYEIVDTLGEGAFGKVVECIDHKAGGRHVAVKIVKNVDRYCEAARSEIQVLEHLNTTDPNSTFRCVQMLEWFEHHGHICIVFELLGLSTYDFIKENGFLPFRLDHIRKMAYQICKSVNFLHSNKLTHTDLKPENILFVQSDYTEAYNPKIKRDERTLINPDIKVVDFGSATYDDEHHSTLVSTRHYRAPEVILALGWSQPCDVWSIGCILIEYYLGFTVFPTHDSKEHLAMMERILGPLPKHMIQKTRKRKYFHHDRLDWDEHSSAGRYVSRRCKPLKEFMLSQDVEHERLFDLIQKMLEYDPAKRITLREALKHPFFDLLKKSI
T3 sequence (Q9UPE1 whole entry): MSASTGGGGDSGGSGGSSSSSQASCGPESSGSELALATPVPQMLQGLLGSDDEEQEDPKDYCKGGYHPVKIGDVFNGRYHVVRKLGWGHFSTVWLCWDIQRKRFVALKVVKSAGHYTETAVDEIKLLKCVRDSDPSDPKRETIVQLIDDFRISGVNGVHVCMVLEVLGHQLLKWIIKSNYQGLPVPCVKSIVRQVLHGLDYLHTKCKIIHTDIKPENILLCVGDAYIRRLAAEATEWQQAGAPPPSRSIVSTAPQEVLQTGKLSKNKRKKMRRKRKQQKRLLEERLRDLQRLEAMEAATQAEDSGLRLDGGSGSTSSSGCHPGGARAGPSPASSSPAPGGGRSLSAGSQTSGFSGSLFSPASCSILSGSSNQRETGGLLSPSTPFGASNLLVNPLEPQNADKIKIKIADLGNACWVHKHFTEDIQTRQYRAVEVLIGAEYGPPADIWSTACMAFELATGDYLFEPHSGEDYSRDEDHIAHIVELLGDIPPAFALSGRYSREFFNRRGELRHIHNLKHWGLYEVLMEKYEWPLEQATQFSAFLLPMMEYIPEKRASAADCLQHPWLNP
Sequence of Aurora kinase A (O14965 whole entry): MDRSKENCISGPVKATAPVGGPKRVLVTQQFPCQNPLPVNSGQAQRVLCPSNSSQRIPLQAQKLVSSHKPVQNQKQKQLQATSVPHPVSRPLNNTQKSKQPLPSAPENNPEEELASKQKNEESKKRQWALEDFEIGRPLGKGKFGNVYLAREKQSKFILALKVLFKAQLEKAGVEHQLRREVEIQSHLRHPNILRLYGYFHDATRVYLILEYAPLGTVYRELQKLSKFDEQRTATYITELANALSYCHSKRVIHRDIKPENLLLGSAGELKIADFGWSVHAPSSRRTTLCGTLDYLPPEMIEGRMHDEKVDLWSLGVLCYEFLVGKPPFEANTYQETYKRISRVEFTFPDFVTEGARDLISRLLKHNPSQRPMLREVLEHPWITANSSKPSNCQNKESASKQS
Sequence of PI3Kα (P42336 whole entry): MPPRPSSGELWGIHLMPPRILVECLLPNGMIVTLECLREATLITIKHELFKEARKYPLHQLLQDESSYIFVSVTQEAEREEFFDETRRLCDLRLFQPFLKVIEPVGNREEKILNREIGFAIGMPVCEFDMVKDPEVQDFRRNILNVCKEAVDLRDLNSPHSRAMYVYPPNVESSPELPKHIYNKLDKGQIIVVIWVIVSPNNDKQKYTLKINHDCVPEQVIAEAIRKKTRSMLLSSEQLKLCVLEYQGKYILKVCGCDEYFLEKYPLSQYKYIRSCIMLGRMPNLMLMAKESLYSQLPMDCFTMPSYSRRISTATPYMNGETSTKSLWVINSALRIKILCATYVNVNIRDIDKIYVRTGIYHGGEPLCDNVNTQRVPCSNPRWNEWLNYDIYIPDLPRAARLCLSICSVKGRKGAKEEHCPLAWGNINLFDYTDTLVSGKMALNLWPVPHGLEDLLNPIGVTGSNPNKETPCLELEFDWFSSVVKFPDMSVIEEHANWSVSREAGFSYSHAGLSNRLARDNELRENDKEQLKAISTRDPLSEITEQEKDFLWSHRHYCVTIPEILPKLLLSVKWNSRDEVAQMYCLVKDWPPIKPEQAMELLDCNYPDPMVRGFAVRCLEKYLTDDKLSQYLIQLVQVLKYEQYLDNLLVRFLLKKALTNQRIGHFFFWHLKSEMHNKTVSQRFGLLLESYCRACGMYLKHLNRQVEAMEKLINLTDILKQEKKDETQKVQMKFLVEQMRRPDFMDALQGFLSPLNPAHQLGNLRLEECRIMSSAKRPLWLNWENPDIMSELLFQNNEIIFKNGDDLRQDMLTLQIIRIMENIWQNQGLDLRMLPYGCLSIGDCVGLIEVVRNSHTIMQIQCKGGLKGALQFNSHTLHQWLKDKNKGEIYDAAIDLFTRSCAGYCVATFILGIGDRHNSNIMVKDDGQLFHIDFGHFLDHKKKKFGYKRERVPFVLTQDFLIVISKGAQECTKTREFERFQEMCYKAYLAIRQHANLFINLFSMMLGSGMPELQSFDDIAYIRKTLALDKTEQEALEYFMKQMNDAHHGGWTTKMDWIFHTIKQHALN
Sequence of PI3Kα (P27986 whole entry partner): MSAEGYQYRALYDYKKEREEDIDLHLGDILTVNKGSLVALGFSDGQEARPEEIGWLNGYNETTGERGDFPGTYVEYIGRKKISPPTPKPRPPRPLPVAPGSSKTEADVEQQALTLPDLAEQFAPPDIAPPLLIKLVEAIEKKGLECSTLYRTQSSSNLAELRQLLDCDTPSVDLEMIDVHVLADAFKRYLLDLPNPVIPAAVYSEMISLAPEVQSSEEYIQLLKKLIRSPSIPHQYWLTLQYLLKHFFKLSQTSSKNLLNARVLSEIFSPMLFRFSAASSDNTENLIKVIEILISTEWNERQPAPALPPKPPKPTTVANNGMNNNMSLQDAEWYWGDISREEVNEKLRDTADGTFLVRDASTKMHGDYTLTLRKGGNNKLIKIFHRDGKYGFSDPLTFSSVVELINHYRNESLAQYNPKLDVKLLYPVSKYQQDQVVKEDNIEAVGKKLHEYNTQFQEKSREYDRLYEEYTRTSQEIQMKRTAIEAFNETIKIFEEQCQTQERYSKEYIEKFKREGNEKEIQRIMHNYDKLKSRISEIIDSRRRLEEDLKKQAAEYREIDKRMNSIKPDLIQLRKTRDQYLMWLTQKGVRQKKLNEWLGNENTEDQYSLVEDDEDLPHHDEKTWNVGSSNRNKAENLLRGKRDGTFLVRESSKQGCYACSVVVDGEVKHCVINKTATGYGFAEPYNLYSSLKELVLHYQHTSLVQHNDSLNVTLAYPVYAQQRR

CC(C)(CCc1nnn[nH]1)c1ccc(C(=O)Nc2cn3cc(C(F)(F)F)ccc3n2)cc1 [Cpd-1, 4-(2-methyl-4-(1H-tetrazol-5-yl)butan-2-yl)-N-(6-(trifluoromethyl)imidazo[1,2-a]pyridin-2-yl)benzamide] showed an IC50 (CLK1) of 16 nM, an IC50 (CLK2) of 45 nM and a GI50 (SW620 cells) of 41800 nM. For the same compound, the GI50 (COLO320DM cells) was 43000 nM, the “inhibition of Aurora kinase A in kinase panel” value (Aurora kinase A) was “moderately inhibited” and the “amounts of S6K mRNA isoforms harboring PTCs (exons 6–8, exons 6–10) versus canonical S6K exons 6–7 after 24 h chase” value [1] was “significantly lower”.

For CC(C)(C)c1ccc(C(=O)Nc2cn3cc(-c4cn[nH]c4)ccc3n2)cn1 [Cpd-2, 6-tert-butyl-N-(6-(1H-pyrazol-4-yl)imidazo[1,2-a]pyridin-2-yl)nicotinamide], the IC50 (CLK1) was 1.1 nM, the “activity for CLK1 relative to Cpd-1” value (CLK1) was 10 fold and the IC50 (CLK2) was 2.4 nM. The “activity for CLK2 relative to Cpd-1” value (CLK2) was 10 fold, the IC50 (SRPK3) was 230 nM and the GI50 (SW620 cells) was 2000 nM. For the same compound, the GI50 (COLO320DM cells) was 600 nM, the “inhibition of PI3Kα in kinase panel” value (PI3Kα) was “moderately inhibited” and the “Phospho-SRSF1 (SF2) level” value [2] was “decreased”. The “phosphorylation levels of SRSF4 (SRp75)” value [2] was “at lower concentrations than Cpd-1”, the “amounts of S6K mRNA isoforms harboring PTCs (exons 6–8, exons 6–10) versus canonical S6K exons 6–7 after 24 h chase” value [1] was “significantly lower” and the “protein levels of S6K, EIF3D, and EGFR” value [3] was “reduced the protein levels of S6K, EIF3D, and EGFR in a concentration-dependent manner”.

For CC(C)(CO)c1ccc(C(=O)Nc2cn3cc(-c4cn[nH]c4)ccc3n2)cc1 [Cpd-3, 4-(1-hydroxy-2-methylpropan-2-yl)-N-(6-(1H-pyrazol-4-yl)imidazo[1,2-a]pyridin-2-yl)benzamide], the IC50 (CLK1) was 1.1 nM, the “activity for CLK1 relative to Cpd-1” value (CLK1) was 10 fold and the IC50 (CLK2) was 2.1 nM. The “activity for CLK2 relative to Cpd-1” value (CLK2) was 10 fold, the IC50 (SRPK3) was 260 nM and the GI50 (SW620 cells) was 2900 nM. The GI50 (COLO320DM cells) was 1500 nM, the “inhibition of Aurora kinase A in kinase panel” value (Aurora kinase A) was “moderately inhibited” and the “Phospho-SRSF1 (SF2) level” value [2] was “decreased”. For the same compound, the “phosphorylation levels of SRSF4 (SRp75)” value [2] was “at lower concentrations than Cpd-1”.
